# Assay results: PubChem BioAssay AID489040 (Sanford-Burnham Center for Chemical Genomics, 2010)
# pEC50: −log10 of the molar value. Calls of active or inactive are those of the source.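 The calls were made as follows: active = mean half-maximal activating concentration from the dose-response fit at or below a set limit; inactive = the rest.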
# Target: CHO-XBP1 luciferase reporter, IRE1-XBP1 UPR activation
# Assay: XBP1 luciferase reporter activation – CHO-XBP1 cells, luminescence, counter-screen for apoptotic UPR arm activators, dose response (AID 489040);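 also: reporter read after six hours of compound exposure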
SMILES,EC50,pEC50
CC(C)c1ccc(N2C(=O)NC(=O)/C(=C\C=C\c3ccco3)C2=O)cc1,> 80 µM (inactive),
CCOC(=O)c1c(CSC(=N)N)n(-c2ccc(C)cc2)c2cc(Br)c(OC(C)=O)cc12,> 80 µM (inactive),
CC(NC(=O)CN(c1cccc(C(F)(F)F)c1)S(=O)(=O)c1ccc(Cl)c([N+](=O)[O-])c1)c1ccccc1 (stereo not drawn),> 80 µM (inactive),
O=C(N/N=C(\c1ccccc1)c1ccccn1)c1cccc([N+](=O)[O-])c1,> 80 µM (inactive),
O=C(/C=C/c1ccc(O)c(O)c1)OCCc1ccccc1,> 80 µM (inactive),
CC1=NOC(=O)/C1=C/c1ccc(-c2ccc(Cl)cc2)o1,> 80 µM (inactive),
Oc1ccc(CN2CCN(Cc3ccccc3)CC2)c2cccnc12,> 80 µM (inactive),
Cc1ccc2c(C(=O)CCl)c(C)[nH]c2c1,> 80 µM (inactive),
CCOC(=O)C1=C(CCl)NC(=O)NC1c1ccc2c(c1)OCO2 (stereo not drawn),> 80 µM (inactive),
O=C(Nc1ccc(Cl)cc1)/C(=C/c1cccc(O)c1)c1nc2ccccc2s1,> 80 µM (inactive),
COc1ccc(-n2nc(C#N)c(Cl)cc2=O)cc1,> 80 µM (inactive),
Cc1cc(C)nc(SCc2ccc(C(=O)N/N=C/c3cccc(O)c3O)cc2)n1,> 80 µM (inactive),
COc1ccccc1N1CCN(/N=C/c2ccc(O)c(O)c2)CC1,> 80 µM (inactive),
O=c1nc(Nc2cccc(Cl)c2)oc2cc(Cl)oc(=O)c12,> 80 µM (inactive),
CC(=O)/C(=C/c1ccccc1)C(=O)Nc1ccccc1C,> 80 µM (inactive),
Cc1ccccc1CS(=O)(=O)c1ncc(Cl)c(C(=O)Nc2ccc(F)cc2)n1,> 80 µM (inactive),
Cc1cccc(Cn2cc(/C=C/[N+](=O)[O-])c3ccccc32)c1,> 80 µM (inactive),
O=C1NC(=S)NC(=O)C1=Cc1ccc(Br)s1,> 80 µM (inactive),
Cc1ccc(NC(=O)c2nc(S(=O)(=O)Cc3ccccc3C)ncc2Cl)cc1C,> 80 µM (inactive),
COC(=O)C(=Cc1ccc(OCc2ccc([N+](=O)[O-])cc2)c(OC)c1)C(=O)OC,> 80 µM (inactive),
C/C(=N\NC(=O)c1cc2ccccc2cc1O)c1ccccn1,> 80 µM (inactive),
O=C(CSc1cccc2cccnc12)N/N=C/c1cccnc1,> 80 µM (inactive),
CCOc1cc(/C=C2/C(=O)ON=C2C)ccc1OCc1ccccc1F,> 80 µM (inactive),

SMILES,EC50,pEC50
CC(C)CNC(=O)c1coc(=O)c(Br)c1,> 80 µM (inactive),
COc1ccccc1NC(=O)c1cnc(SCC(=O)NCC2CCCO2)n(C)c1=O (stereo not drawn),> 80 µM (inactive),
O=C(Nc1nc2c(F)cc(F)cc2s1)c1ccccn1,> 80 µM (inactive),
CC(C)(C)C1=CC(=O)C(=O)C(C(C)(C)C)=C1,> 80 µM (inactive),
Cc1ccc(-n2nc3cc(C)c(NC(=S)NC(=O)/C=C/c4ccco4)cc3n2)cc1,inactive,
Cc1c(NC(=O)CSc2cccc3cccnc23)c(=O)n(-c2ccccc2)n1C,> 80 µM (inactive),
CCc1cc2c(=O)c(-c3cnn(-c4ccccc4)c3)c(C)oc2cc1OCC(=O)Nc1cccc(C)c1,inactive,
COc1ccc(/C=C/C(=O)c2ccc([N+](=O)[O-])o2)cc1,> 80 µM (inactive),
N#CC(C#N)=C1C=CC=CN1/C(=C\c1ccccc1)C(=O)c1cccs1,> 80 µM (inactive),
COc1ccc(-c2cc(C(F)(F)F)nc(S(C)(=O)=O)n2)cc1OC,> 80 µM (inactive),
O=C(Nc1nc(-c2ccccn2)cs1)c1cc(Cl)ccc1[N+](=O)[O-],> 80 µM (inactive),
COC(=O)Oc1ccc(/C=C/C(=O)OC(C)C)cc1OC(=O)OC,> 80 µM (inactive),
CC(C)N=c1scc(-c2cccs2)n1/N=C/c1ccc(O)c(O)c1O,> 80 µM (inactive),
CCNc1ccccc1CP(=O)(c1ccccc1)c1ccccc1O (stereo not drawn),> 80 µM (inactive),
COc1ccc2cc1Oc1ccc(cc1)CC1c3c(cc(OC)c4c3Oc3cc5c(cc3O4)CCNC5C2)CCN1C (stereo not drawn),> 80 µM (inactive),
Cc1ccccc1/C=C/C(=O)c1ccc([N+](=O)[O-])o1,> 80 µM (inactive),
C=CCN=c1scc(C)n1/N=C/c1ccc(O)c(O)c1,,4.76
Cc1nc(NC(=O)/C=C/c2ccccc2)n[nH]1,> 80 µM (inactive),
O=C(Nc1ccc(-c2nc3ncccc3o2)cc1)c1ccc([N+](=O)[O-])o1,> 80 µM (inactive),
COc1ccc(NC(=O)C(=O)N/N=C\c2ccc(CNC(=O)C(=O)Nc3ccc(C)c(C)c3)o2)c(OC)c1,> 80 µM (inactive),
COc1ccccc1N=c1oc2c(OC)cccc2cc1C(=O)NCc1ccco1,inactive,
Cc1cc(C)cc(N2C(=O)NC(=O)/C(=C\c3cccn3-c3ccccc3)C2=O)c1,> 80 µM (inactive),
O=[N+]([O-])c1cc(-c2ncccn2)c([N+](=O)[O-])s1,> 80 µM (inactive),

SMILES,EC50,pEC50
CC[C@@H](C)[C@H](NC(=O)OC(C)(C)C)c1nnc(S(=O)(=O)Cc2cc(C)ccc2C)o1,> 80 µM (inactive),
O=C(Nc1ccc(O)c2c(=O)cc(-c3cccc(Cl)c3)oc12)c1ccccc1Cl,> 80 µM (inactive),
O=[N+]([O-])c1ccccc1S(=O)(=O)Nc1cccc2cccnc12,> 80 µM (inactive),
CCc1ccc(NC(=O)C(CC)Sc2nc3cc4c(cc3c(=O)n2Cc2ccco2)OCO4)cc1 (stereo not drawn),> 80 µM (inactive),
O=C(NC1CCCC1)C(c1ccc(F)cc1)N(Cc1ccc(Cl)cc1)C(=O)CCl (stereo not drawn),> 80 µM (inactive),
COc1ccc(C(c2c(C)[nH]n(C(N)=S)c2=O)C(C#N)C#N)cc1 (stereo not drawn),> 80 µM (inactive),
CCSC1(SCC)N=C(N)C2(C#N)C(c3ccc(F)cc3)C12C#N (stereo not drawn),> 80 µM (inactive),
COc1cccc2sc(N3CCN(c4nc5ccccc5s4)CC3)nc12,,4.73
COC(=O)c1c(NC(=O)c2ccc([N+](=O)[O-])o2)sc2c1CCN(C(C)C)C2,> 80 µM (inactive),
O=C1Nc2ccc(Br)cc2/C1=N/N=C/C1=C(N2CCOCC2)C(=C\c2ccccc2)/CC1,> 80 µM (inactive),
O=C(CCl)Nc1cccc(CP(=O)(c2ccccc2)c2ccccc2)c1,> 80 µM (inactive),
O=C(NC1CCCC1)C(c1ccc(Cl)cc1)N(Cc1ccc(F)cc1)C(=O)CCl (stereo not drawn),> 80 µM (inactive),
C=CCn1c(O)c(N=NC(=S)Nc2ccccc2F)c2cc(S(=O)(=O)N3CCOCC3)ccc21,> 80 µM (inactive),
CCCCCC(=O)Nc1ccc(C(=O)N/N=C/c2ccc([N+](=O)[O-])cc2)cc1,> 80 µM (inactive),
CSc1nnc(NC(=O)c2nc(S(=O)(=O)Cc3ccccc3F)ncc2Cl)s1,> 80 µM (inactive),
CC(C)(C)c1ccc(/C=C(\c2nc3ccccc3[nH]2)S(=O)(=O)c2ccccc2)cc1,> 80 µM (inactive),
COc1ccc(C(=O)C(CN2CCOCC2)c2ccccc2)cc1 (stereo not drawn),> 80 µM (inactive),
CC(C)(C)C(=O)N1CCN(c2ccc(NC(=O)c3ccc([N+](=O)[O-])o3)cc2)CC1,> 80 µM (inactive),
CCOC(=O)/C(=C\c1cccc(O)c1)c1nc2sc(C)c(C)c2c(=O)[nH]1,> 80 µM (inactive),
O=C(/C(=C/c1ccc(Cl)cc1)c1nc2ccccc2[nH]1)c1ccccc1,> 80 µM (inactive),
Oc1ccc(-c2cn3ccccc3n2)cc1O,> 80 µM (inactive),
O=[N+]([O-])c1ccc2nc(Cl)nc(-c3ccccc3)c2c1,> 80 µM (inactive),
